Measured values as given in patent US20070207971A1 (priority 2006, published 2007).

Assays:
[1] = test system: influenza A virus (A/WSN/33); test: ELISA virus capture on streptavidin coated plate; format: binding
[2] = biological target: Vibro cholerae neuraminidase (Vibrio cholerae serotype O1, UniProt P0C6E9); test: biochemical; format: biochemical; conditions: for inhibitory effect on neuraminidase activity: pH 6.5
[3] = biological target: Bovine serum albumin (BSA) (Bos taurus, UniProt P02769); test: Western blot analysis, negative control protein; format: binding; conditions: BSA 0.65 μg/μl with 200 μM, 4° C.
Sequence of Bovine serum albumin (BSA) (P02769 25-607): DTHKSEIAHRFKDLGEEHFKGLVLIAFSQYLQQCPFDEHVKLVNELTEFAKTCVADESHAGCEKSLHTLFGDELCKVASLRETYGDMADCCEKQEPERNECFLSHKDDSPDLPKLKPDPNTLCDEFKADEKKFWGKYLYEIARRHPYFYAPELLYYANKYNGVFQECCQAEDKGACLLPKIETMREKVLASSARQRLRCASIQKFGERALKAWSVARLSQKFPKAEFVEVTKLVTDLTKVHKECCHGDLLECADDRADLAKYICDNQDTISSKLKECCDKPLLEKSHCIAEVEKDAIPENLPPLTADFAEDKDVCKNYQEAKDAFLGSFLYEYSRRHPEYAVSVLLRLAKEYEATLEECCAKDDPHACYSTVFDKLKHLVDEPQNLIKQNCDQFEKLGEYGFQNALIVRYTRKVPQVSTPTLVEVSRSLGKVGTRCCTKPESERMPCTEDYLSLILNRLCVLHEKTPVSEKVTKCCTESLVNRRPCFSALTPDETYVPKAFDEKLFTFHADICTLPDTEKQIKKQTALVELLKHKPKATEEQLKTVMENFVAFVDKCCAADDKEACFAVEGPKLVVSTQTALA

[4] = biological target: T1, Athrobacter ureafaciens neuraminidase (Paenarthrobacter ureafaciens, UniProt Q5W7Q2); format: biochemical; conditions: pH 6.5
T1 sequence (Q5W7Q2 39-990): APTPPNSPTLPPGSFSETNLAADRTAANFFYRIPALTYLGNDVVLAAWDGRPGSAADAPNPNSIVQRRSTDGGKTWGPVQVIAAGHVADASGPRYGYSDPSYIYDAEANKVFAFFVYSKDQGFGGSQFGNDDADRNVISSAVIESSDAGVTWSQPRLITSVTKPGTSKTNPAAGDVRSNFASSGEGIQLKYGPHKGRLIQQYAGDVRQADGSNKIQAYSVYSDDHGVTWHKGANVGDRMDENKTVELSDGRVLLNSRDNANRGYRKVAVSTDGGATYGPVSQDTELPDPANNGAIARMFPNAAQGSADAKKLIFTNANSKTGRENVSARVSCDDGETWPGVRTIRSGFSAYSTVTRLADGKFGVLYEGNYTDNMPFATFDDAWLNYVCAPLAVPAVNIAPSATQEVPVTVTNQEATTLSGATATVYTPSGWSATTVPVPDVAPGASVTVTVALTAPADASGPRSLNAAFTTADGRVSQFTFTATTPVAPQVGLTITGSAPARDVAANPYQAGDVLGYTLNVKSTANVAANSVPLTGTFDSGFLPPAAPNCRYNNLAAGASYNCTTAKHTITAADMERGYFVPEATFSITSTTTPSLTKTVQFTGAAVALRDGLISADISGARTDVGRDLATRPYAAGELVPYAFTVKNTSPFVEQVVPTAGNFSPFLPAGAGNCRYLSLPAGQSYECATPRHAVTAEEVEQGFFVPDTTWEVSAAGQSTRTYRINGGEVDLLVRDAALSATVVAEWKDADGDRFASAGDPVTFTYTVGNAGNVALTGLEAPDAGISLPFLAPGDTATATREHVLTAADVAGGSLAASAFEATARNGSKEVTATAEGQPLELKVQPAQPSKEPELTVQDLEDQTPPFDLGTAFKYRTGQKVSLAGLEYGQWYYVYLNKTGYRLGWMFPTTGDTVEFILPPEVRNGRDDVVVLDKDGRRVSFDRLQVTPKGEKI

[5] = biological target: Clostridium perfringens neuraminidase (Clostridium perfringens, UniProt P10481); format: biochemical; conditions: pH 6.5
Sequence of Clostridium perfringens neuraminidase (P10481 whole entry, looked up): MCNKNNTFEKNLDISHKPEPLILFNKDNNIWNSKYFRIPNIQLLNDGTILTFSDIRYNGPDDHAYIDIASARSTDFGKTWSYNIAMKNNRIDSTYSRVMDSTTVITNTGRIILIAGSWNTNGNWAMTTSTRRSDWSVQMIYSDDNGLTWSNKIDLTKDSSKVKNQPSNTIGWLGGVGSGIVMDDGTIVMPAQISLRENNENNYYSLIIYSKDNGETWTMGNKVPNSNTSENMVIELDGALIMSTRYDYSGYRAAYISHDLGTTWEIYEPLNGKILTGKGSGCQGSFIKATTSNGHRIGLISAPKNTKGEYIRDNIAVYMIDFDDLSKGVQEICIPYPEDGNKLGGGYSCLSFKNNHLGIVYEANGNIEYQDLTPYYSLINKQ

[6] = biological target: T1, Athrobacter ureafaciens neuraminidase; test: Western blot analysis of covalent binding (biotinylation) of neuraminidase; conditions: 200 μM, 4° C., ammonium acetate buffer 100 mM; bands of 88, 66 and 52 KDa
[7] = test system: influenza A virus; test: ELISA capturing experiment with neuraminidase active site blocked by zanamivir; format: binding; conditions: compound 1 667 μM, zanamivir 67 μM pre-incubation 45 minutes, 9×10^3 PFU, optical density
[8] = test system: Japanese encephalitis virus (JEV); test: ELISA selective capturing experiment; format: binding; conditions: mixture of influenza A virus and JEV; anti-JEV antibody
[9] = biological target: T2, influenza A virus neuraminidase (Influenza A virus, UniProt P03470); test: biochemical; format: biochemical, influenza A virus (A/WSN/33)
T2 construct: pre-incubated for 45 minutes with influenza A virus (A/WSN/33; 9×10^3 PFU); host or cells: whole virus particles (PFU-titred virus stock)
T2 sequence (P03470 whole entry): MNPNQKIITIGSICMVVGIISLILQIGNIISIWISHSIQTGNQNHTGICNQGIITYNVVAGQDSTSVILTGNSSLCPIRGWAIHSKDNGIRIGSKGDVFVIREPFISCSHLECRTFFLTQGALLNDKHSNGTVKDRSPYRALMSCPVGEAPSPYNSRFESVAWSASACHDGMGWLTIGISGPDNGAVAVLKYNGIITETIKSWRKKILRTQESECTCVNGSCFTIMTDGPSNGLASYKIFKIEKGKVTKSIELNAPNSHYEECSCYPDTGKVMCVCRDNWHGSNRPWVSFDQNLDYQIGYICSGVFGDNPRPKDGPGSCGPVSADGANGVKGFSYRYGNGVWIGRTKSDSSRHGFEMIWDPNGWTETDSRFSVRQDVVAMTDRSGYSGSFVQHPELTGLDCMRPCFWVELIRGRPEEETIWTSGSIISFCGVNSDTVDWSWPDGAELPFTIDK

Sequence of Vibro cholerae neuraminidase (P0C6E9 25-781): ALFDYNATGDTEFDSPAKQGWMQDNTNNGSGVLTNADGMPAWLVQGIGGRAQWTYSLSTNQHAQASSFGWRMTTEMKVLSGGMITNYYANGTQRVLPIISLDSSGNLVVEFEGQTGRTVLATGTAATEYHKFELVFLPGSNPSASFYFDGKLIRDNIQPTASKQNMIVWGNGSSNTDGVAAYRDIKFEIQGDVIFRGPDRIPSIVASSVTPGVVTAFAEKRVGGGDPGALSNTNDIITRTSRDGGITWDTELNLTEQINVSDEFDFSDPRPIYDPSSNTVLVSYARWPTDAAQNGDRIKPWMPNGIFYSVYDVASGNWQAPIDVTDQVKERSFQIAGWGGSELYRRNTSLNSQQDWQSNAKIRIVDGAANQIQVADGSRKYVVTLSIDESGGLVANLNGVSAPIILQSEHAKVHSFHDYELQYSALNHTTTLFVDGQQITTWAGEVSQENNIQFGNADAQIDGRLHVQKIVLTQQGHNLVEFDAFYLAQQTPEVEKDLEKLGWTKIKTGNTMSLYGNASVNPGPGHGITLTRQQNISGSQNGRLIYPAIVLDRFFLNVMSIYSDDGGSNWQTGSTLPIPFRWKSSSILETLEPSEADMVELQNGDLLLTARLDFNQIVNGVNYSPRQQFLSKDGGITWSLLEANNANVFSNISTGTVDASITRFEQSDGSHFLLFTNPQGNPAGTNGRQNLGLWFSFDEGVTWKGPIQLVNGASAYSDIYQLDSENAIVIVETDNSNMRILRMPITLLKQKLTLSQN

Row | Structure (SMILES) | capture of influenza A virus on plate wells ([1]; 5 nmol on streptavidin coated plate, virus 3.8×10^2-970×10^2 PFU, anti-Flu A antibody detection) | capture of influenza A virus from a mixture with JEV ([1]; mixture of influenza A virus and JEV, anti-Flu A antibody) | IC50 [2] | inhibitory effect on neuraminidase activity [2] | bands on the PVDF membrane [3] | inhibitory effect on neuraminidase activity [4] | inhibitory effect on neuraminidase activity [5] | bands on the PVDF membrane (biotinylated neuraminidase isoenzymes) [6] | capture of influenza A virus relative to influenza A virus pretreated with zanamivir [7] | capture of JEV from a mixture with influenza A virus [8] | IC50 [9] | inhibitory effect on neuraminidase activity ([9]; pH 6.5)
1 | CC(=O)N[C@@H]1C(O)CC(Oc2ccc(NC(=O)CCC(=O)NCCCCCCNC(=O)CCCCC3SCC4NC(=O)NC43)cc2C(F)F)(C(=O)O)OC1[C@H](O)[C@H](O)CO (stereo partly drawn) [compound 1] | successfully captured influenza A virus | captured and detected | 530 µM | significant inhibitory effect | no band was observed | significant inhibitory effect | significant inhibitory effect | three bands | 14 folds | not JEV | 1700 µM | significant inhibitory effect
2 | CC(=O)N[C@H]1[C@H]([C@H](O)[C@H](O)CO)OC(C(=O)O)=C[C@@H]1N=C(N)N [zanamivir, reference compound] | – | – | – | only weak inhibitory effect | – | only weak inhibitory effect | only weak inhibitory effect | – | – | – | – | –
